This passage reports IC50 and Ki results from patent publication US11130769B2 (Prelude Therapeutics Incorporated, priority 2018, dated 2021).

In general, IC50 refers to the concentration that gives 50% inhibition.

In one test the test system is H929 cells. Kind of test: Cell viability assay (H929 10 FBS). It is filed as cell-based. Conditions: Homo sapiens, NCI-H929, 24 hours, read-out: H929_10FBS IC50. The method in brief:
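H929 cells, 4000/well, in RPMI 1640 with 10% FBS, sodium pyruvate, HEPES and glucose were exposed to compound 24 h at 37 °C. Viability read as luminescence after 30-60 min at RT with CellTiter-Glo or ATPlite 1 Step.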

Another test has as its target MCL-1 (Homo sapiens (Human), UniProt Q07820). Briefly: Cell free Mcl-1:Bim affinity assay (fluorescence polarization competition). Type of test: binding. Conditions: 15 nM MCL-1, 5 nM FITC-Bim, 1 hour at room temperature; class symbols; read-out: BIM_Ki. An outline of the steps: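 Compounds competed with FITC-labelled Bim peptide (5 nM) for MCL-1 (15 nM) in HEPES/NaCl buffer with 1% DMSO, 1 h at room temperature. Fluorescence polarization (535 nm emission) gave % inhibition versus DMSO and positive controls; IC50 from 10-point curves, converted to Ki by the Nikolovska-Coleska equation.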
(Fluorescence polarisation rises when a labelled molecule tumbles more slowly, as on binding a larger partner.)

SMILES strings stand for the structures.

Chain of MCL-1 (Q07820 whole entry): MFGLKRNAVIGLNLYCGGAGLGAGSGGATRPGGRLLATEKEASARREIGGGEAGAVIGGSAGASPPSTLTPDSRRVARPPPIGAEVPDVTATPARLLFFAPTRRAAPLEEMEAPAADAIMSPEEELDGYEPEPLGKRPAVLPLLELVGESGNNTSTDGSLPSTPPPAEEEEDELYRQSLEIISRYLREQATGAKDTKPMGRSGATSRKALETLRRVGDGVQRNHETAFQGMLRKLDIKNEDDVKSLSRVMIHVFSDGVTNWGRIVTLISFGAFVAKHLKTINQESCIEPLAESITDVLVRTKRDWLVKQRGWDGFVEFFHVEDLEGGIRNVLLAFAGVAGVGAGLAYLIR

As for `CN1C/C=C/[C@H](OC(=O)NC2CCC2)[C@@H]2CC[C@H]2CN2C[C@@]3(CCCc4cc(Cl)ccc43)COc3ccc(cc32)S(=O)(=O)NC(=O)C1(C)C` [Example 201, [(3R,6R,7S,8E,22S)-6′-Chloro-11,12,12-trimethyl-13,15,15-trioxo-spiro[20-oxa-15-thia-1,11,14-triazatetracyclo[14.7.2.03,6.019,24]pentacosa-8,16,18,24-tetraene-22,1′-tetralin]-7-yl] N-cyclobutylcarbamate], the IC50 in the test with H929 cells is less than 500 nM. The Ki at MCL-1 is less than 1 nM.

As to `CN(C(=O)O[C@H]1/C=C/COC(C)(C)C(=O)NS(=O)(=O)c2ccc3c(c2)N(C[C@@H]2CC[C@H]21)C[C@@]1(CCCc2cc(Cl)ccc21)CO3)[C@H]1CCOC1` [Example 202, [(3R,6R,7S,8E,22S)-6′-Chloro-12,12-dimethyl-13,15,15-trioxo-spiro[11,20-dioxa-15-thia-1,14-diazatetracyclo[14.7.2.03,6.019,24]pentacosa-8,16,18,24-tetraene-22,1′-tetralin]-7-yl] N-methyl-N-[(3S)-tetrahydrofuran-3-yl]carbamate], the half-inhibitory concentration (IC50) in the test with H929 cells is less than 500 nM. Also, the Ki on MCL-1 is less than 1 nM.

As to `CNC(=O)O[C@H]1/C=C/CN(C)C(C)(C)C(=O)NS(=O)(=O)c2ccc3c(c2)N(C[C@@H]2CC[C@H]21)C[C@@]1(CCCc2cc(Cl)ccc21)CO3` [Example 203, [(3R,6R,7S,8E,22S)-6′-Chloro-11,12,12-trimethyl-13,15,15-trioxo-spiro[20-oxa-15-thia-1,11,14-triazatetracyclo[14.7.2.03,6.019,24]pentacosa-8,16,18,24-tetraene-22,1′-tetralin]-7-yl] N-methylcarbamate], the IC50 in the test on H929 cells was less than 500 nM. On MCL-1, the Ki was less than 1 nM.

Take `CCNC(=O)O[C@H]1/C=C/CN(C)C(C)(C)C(=O)NS(=O)(=O)c2ccc3c(c2)N(C[C@@H]2CC[C@H]21)C[C@@]1(CCCc2cc(Cl)ccc21)CO3` [Example 204, [(3R,6R,7S,8E,22S)-6′-Chloro-11,12,12-trimethyl-13,15,15-trioxo-spiro[20-oxa-15-thia-1,11,14-triazatetracyclo[14.7.2.03,6.019,24]pentacosa-8,16,18,24-tetraene-22,1′-tetralin]-7-yl] N-ethylcarbamate]: the IC50 with H929 cells was less than 500 nM. At MCL-1, the Ki is less than 1 nM.

`CN1C/C=C/[C@H](OC(=O)NCC2CC2)[C@@H]2CC[C@H]2CN2C[C@@]3(CCCc4cc(Cl)ccc43)COc3ccc(cc32)S(=O)(=O)NC(=O)C1(C)C` [Example 205, [(3R,6R,7S,8E,22S)-6′-Chloro-11,12,12-trimethyl-13,15,15-trioxo-spiro[20-oxa-15-thia-1,11,14-triazatetracyclo[14.7.2.03,6.019,24]pentacosa-8,16,18,24-tetraene-22,1′-tetralin]-7-yl] N-(cyclopropylmethyl)carbamate]: in the test with H929 cells, the half-maximal inhibitory concentration (IC50) was less than 500 nM. The Ki at MCL-1 was in the range of 1 to 100 nM.

Consider `CC(C)NC(=O)O[C@H]1/C=C/CN(C)C(C)(C)C(=O)NS(=O)(=O)c2ccc3c(c2)N(C[C@@H]2CC[C@H]21)C[C@@]1(CCCc2cc(Cl)ccc21)CO3` [Example 207, [(3R,6R,7S,8E,22S)-6′-Chloro-11,12,12-trimethyl-13,15,15-trioxo-spiro[20-oxa-15-thia-1,11,14-triazatetracyclo[14.7.2.03,6.019,24]pentacosa-8,16,18,24-tetraene-22,1′-tetralin]-7-yl] N-isopropylcarbamate], for which, in the test with H929 cells, the half-inhibitory concentration (IC50) was less than 500 nM. Also, the Ki at MCL-1 was less than 1 nM.

Take `CN(C)C(=O)O[C@H]1/C=C/CNC(C)(C)C(=O)NS(=O)(=O)c2ccc3c(c2)N(C[C@@H]2CC[C@H]21)C[C@@]1(CCCc2cc(Cl)ccc21)CO3` [Example 209, [(3R,6R,7S,8E,22S)-6′-Chloro-12,12-dimethyl-13,15,15-trioxo-spiro[20-oxa-15-thia-1,11,14-triazatetracyclo[14.7.2.03,6.019,24]pentacosa-8,16,18,24-tetraene-22,1′-tetralin]-7-yl] N,N-dimethylcarbamate]: the concentration for half-maximal inhibition (IC50) in the test with H929 cells is less than 500 nM. Further, the Ki at MCL-1 is less than 1 nM.

Consider `CCN1C/C=C/[C@H](OC(=O)N(C)C)[C@@H]2CC[C@H]2CN2C[C@@]3(CCCc4cc(Cl)ccc43)COc3ccc(cc32)S(=O)(=O)NC(=O)C1(C)C` [Example 210, [(3R,6R,7S,8E,22S)-6′-Chloro-11-ethyl-12,12-dimethyl-13,15,15-trioxo-spiro[20-oxa-15-thia-1,11,14-triazatetracyclo[14.7.2.03,6.019,24]pentacosa-8,16,18,24-tetraene-22,1′-tetralin]-7-yl] N,N-dimethylcarbamate], for which the IC50 in the test on H929 cells was less than 500 nM. Besides, the Ki at MCL-1 is less than 1 nM.

As to `CCCN1C/C=C/[C@H](OC(=O)N(C)C)[C@@H]2CC[C@H]2CN2C[C@@]3(CCCc4cc(Cl)ccc43)COc3ccc(cc32)S(=O)(=O)NC(=O)C1(C)C` [Example 211, [(3R,6R,7S,8E,22S)-6′-Chloro-12,12-dimethyl-13,15,15-trioxo-11-propyl-spiro[20-oxa-15-thia-1,11,14-triazatetracyclo[14.7.2.03,6.019,24]pentacosa-8,16,18,24-tetraene-22,1′-tetralin]-7-yl] N,N-dimethylcarbamate], the IC50 in the test with H929 cells is less than 500 nM. For the same compound, on MCL-1, the Ki was less than 1 nM.

For `CN1C/C=C/[C@H](OC(=O)N[C@H]2CCOC2)[C@@H]2CC[C@H]2CN2C[C@@]3(CCCc4cc(Cl)ccc43)COc3ccc(cc32)S(=O)(=O)NC(=O)C1(C)C` [Example 212, [(3R,6R,7S,8E,22S)-6′-Chloro-11,12,12-trimethyl-13,15,15-trioxo-spiro[20-oxa-15-thia-1,11,14-triazatetracyclo[14.7.2.03,6.019,24]pentacosa-8,16,18,24-tetraene-22,1′-tetralin]-7-yl] N-[(3S)-tetrahydrofuran-3-yl]carbamate], the 50% inhibitory concentration (IC50) in the test on H929 cells is less than 500 nM. In addition, the Ki at MCL-1 was less than 1 nM.

For `CN(C)CCN(C)C(=O)O[C@H]1/C=C/CN(C)C(C)(C)C(=O)NS(=O)(=O)c2ccc3c(c2)N(C[C@@H]2CC[C@H]21)C[C@@]1(CCCc2cc(Cl)ccc21)CO3` [Example 213, [(3R,6R,7S,8E,22S)-6′-Chloro-11,12,12-trimethyl-13,15,15-trioxo-spiro[20-oxa-15-thia-1,11,14-triazatetracyclo[14.7.2.03,6.019,24]pentacosa-8,16,18,24-tetraene-22,1′-tetralin]-7-yl] N-[2-(dimethylamino)ethyl]-N-methyl-carbamate], the 50% inhibitory concentration (IC50) in the test on H929 cells was less than 500 nM. The Ki at MCL-1 is less than 1 nM.

In the case of `CN(C)C1CN(C(=O)O[C@H]2/C=C/CN(C)C(C)(C)C(=O)NS(=O)(=O)c3ccc4c(c3)N(C[C@@H]3CC[C@H]32)C[C@@]2(CCCc3cc(Cl)ccc32)CO4)C1` [Example 214, [(3R,6R,7S,8E,22S)-6′-Chloro-11,12,12-trimethyl-13,15,15-trioxo-spiro[20-oxa-15-thia-1,11,14-triazatetracyclo[14.7.2.03,6.019,24]pentacosa-8,16,18,24-tetraene-22,1′-tetralin]-7-yl] 3-(dimethylamino)azetidine-1-carboxylate], in the test on H929 cells, the IC50 was less than 500 nM. Further, the Ki at MCL-1 is less than 1 nM.

For the compound `CO[C@@H]1CCN(C(=O)O[C@H]2/C=C/CN(C)C(C)(C)C(=O)NS(=O)(=O)c3ccc4c(c3)N(C[C@@H]3CC[C@H]32)C[C@@]2(CCCc3cc(Cl)ccc32)CO4)C1` [Example 215, [(3R,6R,7S,8E,22S)-6′-Chloro-11,12,12-trimethyl-13,15,15-trioxo-spiro[20-oxa-15-thia-1,11,14-triazatetracyclo[14.7.2.03,6.019,24]pentacosa-8,16,18,24-tetraene-22,1′-tetralin]-7-yl] (3R)-3-methoxypyrrolidine-1-carboxylate], the IC50 in the test on H929 cells was less than 500 nM. Further, at MCL-1, the Ki was less than 1 nM.

Turning to `CN1C/C=C/[C@H](OC(=O)N2CCC2)[C@@H]2CC[C@H]2CN2C[C@@]3(CCCc4cc(Cl)ccc43)COc3ccc(cc32)S(=O)(=O)NC(=O)C1(C)C` [Example 216, [(3R,6R,7S,8E,22S)-6′-Chloro-11,12,12-trimethyl-13,15,15-trioxo-spiro[20-oxa-15-thia-1,11,14-triazatetracyclo[14.7.2.03,6.019,24]pentacosa-8,16,18,24-tetraene-22,1′-tetralin]-7-yl]azetidine-1-carboxylate], the half-inhibitory concentration (IC50) in the test on H929 cells is less than 500 nM. Moreover, at MCL-1, the Ki is less than 1 nM.

Turning to `COC1CN(C(=O)O[C@H]2/C=C/CN(C)C(C)(C)C(=O)NS(=O)(=O)c3ccc4c(c3)N(C[C@@H]3CC[C@H]32)C[C@@]2(CCCc3cc(Cl)ccc32)CO4)C1` [Example 217, [(3R,6R,7S,8E,22S)-6′-Chloro-11,12,12-trimethyl-13,15,15-trioxo-spiro[20-oxa-15-thia-1,11,14-triazatetracyclo[14.7.2.03,6.019,24]pentacosa-8,16,18,24-tetraene-22,1′-tetralin]-7-yl] 3-methoxyazetidine-1-carboxylate], in the test with H929 cells, the 50% inhibitory concentration (IC50) is less than 500 nM. Besides, at MCL-1, the Ki is less than 1 nM.

As to `CN(C(=O)O[C@H]1/C=C/CN(C)C(C)(C)C(=O)NS(=O)(=O)c2ccc3c(c2)N(C[C@@H]2CC[C@H]21)C[C@@]1(CCCc2cc(Cl)ccc21)CO3)[C@@H]1CCOC1` [Example 218, [(3R,6R,7S,8E,22S)-6′-Chloro-11,12,12-trimethyl-13,15,15-trioxo-spiro[20-oxa-15-thia-1,11,14-triazatetracyclo[14.7.2.03,6.019,24]pentacosa-8,16,18,24-tetraene-22,1′-tetralin]-7-yl] N-methyl-N-[(3R)-tetrahydrofuran-3-yl]carbamate], the IC50 in the test on H929 cells is less than 500 nM. For the same compound, the Ki on MCL-1 is less than 1 nM.
